Test results taken from patent US7078487B2, “PTH1R receptors” (The General Hospital Corporation, priority 1998, dated 2006).

Columns and labels:
zPTH3R [1] = experiment: Agonist-stimulated cAMP accumulation, COS-7 cells expressing zPTH3R; format: cell-based, zebrafish
Protocol: (§1) Plasmid DNAs encoding the two full length ZPTH1Rs (#25 and #29) and the zPTH3R were transiently expressed in COS-7 cells. COS-7 African green monkey kidney cells (approximately 200,000 cells/well in a 24-well plate) were cultured and transfected with plasmid DNA (200 ng/well) as described (Rubin et al., (1998)). After transfection, cells were cultured for 72 hrs at 37° with daily exchanges of medium, followed by an additional 24 hrs at 33° (Gardella et al., (1997)) until they were functionally evaluated after 96 hrs.
(§2) In order to assess agonist-dependent cAMP accumulation of COS-7 cells expressing zPTH1R and zPTH3R, experiments were done in 24-well plates with COS-7 cells stimulated in the presence of increasing concentrations of either PTH or PTHrP, and intracellular cAMP was determined as described (Bergiwtz et al.,(1998)). EC50 values were determined as previously described (Gardella et al., (1996)).
(§3) Competitive binding and cAMP stimulation assays were performed at room temperature with intact COS-7 cells that expressed either the zPTH1R or the zPTH3R, as described in Materials and Methods. Homologous binding reactions utilized ^125I-rPTH with unlabeled rPTH, and ^125I-hPTHrP with unlabeled hPTHrP, heterologous binding reactions utilized ^125I-[…] with unlabeled rPTH. EC50 and IC50 values were determined as previously described (Gardella et al., 1996). Values are the mean±SEM of at least three independent transfections. ND, not determined.

zPTH1R [2] = experiment: Agonist-stimulated cAMP accumulation, COS-7 cells expressing zPTH1R; format: cell-based, zebrafish; conditions: for cAMP Maximum / EC50: intact COS-7 cells, room temperature
Protocol: as §1, §2, §3

zPTH1R [3] = experiment: Total inositol phosphate accumulation, COS-7 cells expressing zPTH1R; format: cell-based, zebrafish; conditions: ligand 10^−6 M, 30 mM LiCl
Protocol: (§4) In order to determine total inositol phosphate turnover for COS-7 cells expressing zPTH1R, zPTH3R, and hPTH1R, cells were grown in 6-well plates with COS-7 cells (approximately 200,00 cells/well transfected with either 1 μg/well of zPTH1R, zPTH3R, or hPTH 1R (stina)). Cells were cultured for 3 days inDMEM/7% fetal bovine serum (FBS) at 37° C. with daily exchanges of medium. The cells were then preloaded with 3 μCi/ml myo-[^3H]inositol (New England Nuclear, Boston, Mass.) in inositol-free DMEM (Gibco)/7% FBS (33° C. for 18 hr). The following day, plates were rinsed and then incubated with 10^−6 M of either PTH, PTHrP in DMEM/0.1% BSA, or with DMEM/0.1% BSA alone (40 min at 37° C.), in the presence of 30 mM LiCl. Total inositol phosphate (IPs) were isolated by anion exchange column chromatography as previously described (Iida-Klein et al., (1994 and 1995)), and 1 ml of the eluate (⅛th of total) was counted in a liquid scintillation counter (model LS 60001C, Beckman, Fullerton, Calif.). All points represent mean±S.E.M. of two to three replicates from two or more independent experiments.

zPTH3R [4] = experiment: Total inositol phosphate accumulation, COS-7 cells expressing zPTH3R; format: cell-based, zebrafish; conditions: ligand 10^−6 M, 30 mM LiCl
Protocol: as §4

zPTH3R [5] = experiment: Competitive radioligand binding, COS-7 cells expressing zPTH3R; set-up: species or system zebrafish
Protocol: as §1
Radioligand studies with COS-7 cells expressing either zPTH1R or zPTH3R were performed as described using either ^125I-labeled [Nle^8,21,Tyr^34]rPTH-(1–34)amide (rPTH) (SEQ ID NO:22) or ^125I-labeled [Tyr^36]hPTHrP-(1–36)amide (PTHrP) (SEQ ID NO:23), and increasing concentrations of either [Tyr^34]hPTH(1–34)amide (PTH) (SEQ ID NO:24), or [Tyr36]hPTHrP(1–36)amide (PTHrP) (SEQ ID NO:25) (Bergwitz et al., (1997)). […] Specific binding was calculated by subtracting radioligand binding in the presence of excess unlabeled peptide from the total binding. […]
Competitive binding and cAMP stimulation assays were performed at room temperature with intact COS-7 cells that expressed either the zPTH1R or the zPTH3R, as described in Materials and Methods. […] EC50 and IC50 values were determined as previously described (Gardella et al., 1996). […] ND, not determined.

[6] = zPPR3, intact COS-7 cells, room temperature

zPTH1R, sequence (as listed by the source): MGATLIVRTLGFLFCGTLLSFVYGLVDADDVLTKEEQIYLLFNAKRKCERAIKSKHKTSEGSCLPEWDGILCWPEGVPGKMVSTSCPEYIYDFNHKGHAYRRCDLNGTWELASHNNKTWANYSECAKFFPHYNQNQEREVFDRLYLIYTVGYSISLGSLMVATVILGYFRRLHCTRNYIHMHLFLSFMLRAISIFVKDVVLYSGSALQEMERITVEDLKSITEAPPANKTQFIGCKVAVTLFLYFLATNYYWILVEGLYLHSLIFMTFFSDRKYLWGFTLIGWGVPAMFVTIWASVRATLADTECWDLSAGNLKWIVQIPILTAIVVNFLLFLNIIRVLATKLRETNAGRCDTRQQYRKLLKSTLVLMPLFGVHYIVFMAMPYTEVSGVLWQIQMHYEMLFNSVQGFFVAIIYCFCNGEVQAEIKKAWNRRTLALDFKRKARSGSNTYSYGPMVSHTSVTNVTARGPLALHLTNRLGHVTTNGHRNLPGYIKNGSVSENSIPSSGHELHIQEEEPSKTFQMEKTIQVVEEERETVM
zPTH3R, sequence (as listed by the source): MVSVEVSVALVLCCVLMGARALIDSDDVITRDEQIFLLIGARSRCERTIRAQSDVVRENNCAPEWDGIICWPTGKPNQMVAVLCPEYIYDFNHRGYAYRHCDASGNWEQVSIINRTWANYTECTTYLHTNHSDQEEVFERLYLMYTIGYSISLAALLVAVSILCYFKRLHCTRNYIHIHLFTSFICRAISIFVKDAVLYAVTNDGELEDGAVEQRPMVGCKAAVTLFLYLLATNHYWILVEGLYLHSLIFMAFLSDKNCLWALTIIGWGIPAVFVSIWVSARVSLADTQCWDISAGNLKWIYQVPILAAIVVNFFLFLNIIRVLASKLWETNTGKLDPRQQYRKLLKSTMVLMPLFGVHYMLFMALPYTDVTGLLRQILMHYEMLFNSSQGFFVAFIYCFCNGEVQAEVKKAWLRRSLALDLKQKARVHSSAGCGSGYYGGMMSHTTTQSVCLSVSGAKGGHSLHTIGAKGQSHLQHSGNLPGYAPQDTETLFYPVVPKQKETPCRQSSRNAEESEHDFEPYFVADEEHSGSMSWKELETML

| Substance | EC50 (zPTH3R [1]; [6]) [nM] | maximal cAMP accumulation (zPTH3R [1]; [6]) [pmol/well] | maximal cAMP accumulation (zPTH3R [1]; zPTH3R, COS-7 cells) [pmol/well] | cAMP Maximum (zPTH1R [2]; zPPR1#25) [pmol/well] | EC50 (zPTH1R [2]; zPPR1#29) [nM] | cAMP Maximum (zPTH1R [2]; zPPR1#29) [pmol/well] | maximal cAMP accumulation (zPTH1R [2]; zPTH1R#25, COS-7 cells) [pmole/well] | maximal cAMP accumulation (zPTH1R [2]; zPTH1R#29, COS-7 cells) [pmole/well] | increase of IP accumulation (zPTH1R [3]) [fold] | IP accumulation (zPTH3R [4]) | IC50 (zPTH3R [5]; [6]) [nM] | Kd (zPTH3R [5]; zPTH3R, COS-7 cells, read-out: apparent Kd) [nM] | cAMP activation at low concentration (zPTH3R [1]; zPTH3R, COS-7 cells, 10^−11 M) | EC50 (zPTH1R [2]; zPPR1#25) [nM] |
| --- | --- | --- | --- | --- | --- | --- | --- | --- | --- | --- | --- | --- | --- | --- |
| AVAEIQLMHNLGKHLNSMERVEWLRKKLQDVHDY [hPTH, [Tyr^34]hPTH(1–34)amide] | 5.98 ± 0.24 | 227.4 ± 41.6 | 285 | 90.4 ± 11.4 | 0.8 ± 0.03 | 106.2 ± 4.8 | 90.4 | 106.2 | 2 | no IP accumulation was detectable |  |  |  |  |
| [Tyr36]hPTHrP(1–36)amide | 0.49 ± 0.17 | 285.4 ± 3.4 | 227 | 92.4 ± 8.00 | 0.3 ± 0.04 | 101.6 ± 3.6 | 92.4 | 101.6 | 2 | no IP accumulation was detectable | ~3 | ~3 | significant activation | 0.9 ± 0.09 |
